Data as given in PMC6333787, “Peptidyl-prolyl isomerase-B is involved in Mycobacterium tuberculosis biofilm formation and a generic target for drug repurposing-based intervention” (NPJ Biofilms and Microbiomes, 2019).
“Also recorded” adds a separate entry of the source. Like-named read-outs stand apart in the source and are kept apart here.

Legend:
[1] = tested on: M. smegmatis (Ms_VC and Ms_PpiB); conditions: general statement, no reference given; cited from earlier work
[2] = tested on: M. smegmatis (Ms_VC and Ms_PpiB); assay type: cell-based, Mycobacterium smegmatis
[3] = cited from earlier work
From the text: Our next step was to identify suitable drug(s) that could act as an inhibitor of PpiB protein. Developing new drugs is a long process taking about 10–15 years. Drug repurposing is gaining popularity as it allows bypassing of the cumbersome clinical trial of drugs for which the parameters of toxicity and effectiveness have already been tested and approved.

[4] = tested on: P.aeruginosa; conditions: cited from earlier work
From the text: The presence of extracellular M.tb within biofilm like structure inside lung lesions of M.tb infected guinea pigs undergoing antibiotic treatment points to the possibility of biofilm formation within the host tissues.[7] Peptidyl-prolyl isomerases (PPIase), popularly known as cyclophilins, are ubiquitously expressed protein foldases which aid in protein folding or refolding by ...

[5] = tested on: M. smegmatis (Ms_VC and Ms_PpiB); assay type: cell-based, Mycobacterium smegmatis; remark: listed apart in the source
[6] = tested on: M.tb PpiB; assay: Surface plasmon resonance (SPR); assay type: binding, Mycobacterium tuberculosis; conditions: rPpiB immobilised on CM5 sensor chip, PBS, association 300 s, dissociation 150 s
[7] = tested on: Prokaryotic cyclophilins; conditions: cited from earlier work
[8] = tested on: M.smegmatis expressing M.tb PpiB (Ms_PpiB) and vector control (Ms_VC); assay type: cell-based, Mycobacterium smegmatis
[9] = tested on: M. smegmatis (Ms_VC and Ms_PpiB); assay type: cell-based, Mycobacterium smegmatis; remark: listed apart in the source
[10] = tested on: Candida albicans; conditions: cited from earlier work
[11] = tested on: M.tuberculosis H37Rv; assay type: cell-based, Mycobacterium tuberculosis
[12] = tested on: M. smegmatis (Ms_VC and Ms_PpiB); assay type: cell-based, Mycobacterium smegmatis; conditions: for bacteriostatic effect at 100 µg/ml: up to 120 h; for Concentration up to which effect is bacteriostatic: 120 h as compared to 72 h; for bacteriostatic or bactericidal effect: M. smegmatis, summary statement
[13] = tested on: C.parapsilosis; conditions: cited from earlier work
[14] = tested on: M. smegmatis (Ms_VC and Ms_PpiB); conditions: general statement, no reference given; cited from earlier work; remark: listed apart in the source
[15] = tested on: E. coli; conditions: cited from earlier work
From the text: Acarbose is widely used for the management of type 2 Diabetes mellitus as well. […] There are several bacteria that are invol ...

In the case of NNC(=O)c1ccncc1 [Isoniazid, isoniazid], the “dosage of isoniazid, normally effective” value [1] is listed as 16 µg/mL, the “dosage of isoniazid with cyclosporine-A” value [2] is listed as 32 µg/mL and the “fold decrease in dosage of isoniazid” value [2] is listed as 2–4 fold. The “dosage of isoniazid, absence of cyclosporine-A” value ([2]; Fig. 4a, PpiB tet+ biofilm, 7 days then 68 h isoniazid) was 64 µg/mL, the “dosage of isoniazid, absence of acarbose” value ([2]; Fig. 4b, PpiB (tet+), 68 h) was 64 µg/mL and the “dosage of isoniazid with GaNP” value ([2]; GaNP 50 µg/ml, Fig. 4c, 68 h) was 16 µg/mL. The “dosage of isoniazid with acarbose” value ([2]; acarbose 500 µg/ml, Fig. 4b, PpiB (tet+), 68 h) was 32 µg/mL.

In the case of CCN(CC)CCCC(C)Nc1ccnc2cc(Cl)ccc12 (stereo not drawn) [chloroquine], the “repurposing outcome in patients” value [3] is given as “improving outcome of cancer drug Erlotinib”.

In the case of O=C(Nc1ccc([N+](=O)[O-])cc1Cl)c1cc(Cl)ccc1O [niclosamide], the “effect against P.aeruginosa biofilm” value [4] is given as “inhibitory effects against biofilms formed by P.aeruginosa”.

For Cc1ccc(-c2cc(C(F)(F)F)nn2-c2ccc(S(N)(=O)=O)cc2)cc1 [Celebrex], the “repurposing outcome in patients” value [3] is listed as “decreasing polyp formation in colon cancer patients”.

In the case of cyclosporine-A, the “Threshold concentration at which viability was not significantly affected” value [5] is reported as 100 µg/mL, the “viability, cyclosporine-A below 250 µg/ml” value [5] is reported as “insignificant effect” and the SPR interaction [6] is reported as “interact with M.tb PpiB in a dose dependent manner and bind with high affinity”. The “affinity for prokaryotic cyclophilins” value [7] was “weak affinity”, the “biofilm formation, 100 µg/ml” value [8] was “significant decrease (p < 0.05) in biofilm formation” and the “biofilm formation, 1000 µg/ml” value [8] was “complete inhibition of biofilm formation (p < 0.005)”. The “biofilm formation, Ms_VC cells” value [8] was “only basal levels of biofilm formation”, the “biofilm formation, induced PpiB tet+” value [8] was “significant decrease in biofilm formation” and the “biofilm formation, uninduced PpiB tet-” value [8] was “did not exhibit any significant change”. For the same molecule, the “decrease in ethambutol dosage with cyclosporine-A” value [9] was “decreased four-fold”, the “combination with fluconazole against C.albicans biofilms” value [10] was “effective against biofilms formed by C.albicans” and the “sensitisation of C. albicans biofilm to antifungal drugs” value [10] was “sensitises drug-tolerant biofilm of Candida albicans to various antifungal drugs”. The “sensitivity of C.albicans to fluconazole” value [10] was “imparts sensitivity to C.albicans towards fluconazole”, the “biofilm formation in H37Rv, cyclosporine-A” value [11] was “significant reduction (Fig. 5a) in biofilm formation” and the “effect on H37Rv biofilm formation” value [11] was “disrupted M.tb H37Rv biofilm formation; also recorded: Suppressive effect”. For the same molecule, the “reduction in dosage of anti-TB drugs” value [2] was “at least two-fold”, the “bacteriostatic effect at 100 µg/ml” value [12] was “bacteriostatic effect” and the “Concentration up to which effect is bacteriostatic” value [12] was ≤ 500 µg/mL. For the same molecule, the “bacteriostatic or bactericidal effect” value ([12]; listed as cyclosporine A) was “bacteriostatic activity”, the “bacteriostatic or bactericidal effect” value ([12]; listed as cyclosporine-A) was “bacteriostatic effect” and the “synergy with antifungals against C.parapsilosis” value [13] was “acts synergistically to improve the efficacy of antifungals against C.parapsilosis”.

For CN(C)C(=N)N=C(N)N [metformin], the “repurposing outcome in patients” value [3] is given as “lowering morbidity of TB patients”.

For CC[C@@H](CO)NCCN[C@@H](CC)CO [Ethambutol, ethambutol], the “dosage of ethambutol with cyclosporine-A” value [9] was 4 µg/mL, the “dosage of ethambutol, control without GaNP” value ([9]; Fig. 4e, control) was 16 µg/mL and the “dosage of ethambutol, absence of cyclosporine-A” value ([9]; Fig. 4d, PpiB tet+, 68 h) was 16 µg/mL. The “dosage of ethambutol with GaNP” value ([9]; GaNP 50 µg/ml, Fig. 4e) was 1 µg/mL and the “dosage of ethambutol, normally effective” value [14] was 1 µg/mL.

With C[C@H]1O[C@H](O[C@H]2[C@H](O)[C@@H](O)[C@@H](O[C@H]3[C@H](O)[C@@H](O)C(O)O[C@@H]3CO)O[C@@H]2CO)[C@H](O)[C@@H](O)[C@@H]1N[C@H]1C=C(CO)[C@@H](O)[C@H](O)[C@H]1O (stereo partly drawn) [Acarbose, acarbose] the “viability, acarbose 10 mg/ml” value ([5]; 10 mg/ml, data not shown) was “no significant effect”, the “Threshold concentration at which viability was not significantly affected” value ([5]; M. smegmatis expressing PpiB, alamar blue) was 1000 µg/mL and the “viability, acarbose up to 1000 µg/ml” value ([5]; up to 1000 µg/ml, Ms_VC or Ms_PpiB) was “no effect”. For the same molecule, the SPR interaction [6] was “interact with M.tb PpiB in a dose dependent manner and bind with high affinity”, the “biofilm formation, induced PpiB tet+” value [8] was “significant decrease in biofilm formation” and the “biofilm formation, acarbose 500 µg/ml and above” value ([8]; 500 µg/ml and above) was “inhibited biofilm formation”. The “biofilm formation, uninduced PpiB tet-” value ([8]; Ms_PpiB uninduced by anhydrotetracycline (PpiB tet-)) was “did not exhibit any significant change”, the “biofilm formation, Ms_VC cells” value ([8]; Ms_VC, presence or absence of agent) was “only basal levels of biofilm formation” and the “biofilm formation, 500 and 1000 µg/ml” value ([8]; acarbose 500 and 1000 µg/ml, Ms_PpiB, compared to no acarbose, 7 days) was “significant inhibition in the biofilm formation”. For the same molecule, the “biofilm formation, lower concentrations” value ([8]; acarbose at lower concentrations, VC tet- and PpiB tet-, "Hormetic effect") was “transient increase in biofilm formation”, the “biofilm formation, acarbose upto 100 µg/ml” value ([8]; lower concentration (upto 100 µg/ml)) was “increase in biofilm formation” and the “efficacy in decreasing the dosage of ethambutol” value ([9]; acarbose, data not shown) was “insignificant”. For the same molecule, the “maltose importer block and growth of E. coli” value [15] was “block maltose importer and consequently suppress growth of E. coli”, the “reduction in dosage of anti-TB drugs” value ([2]; co-treatment, isoniazid/ethambutol) was “at least two-fold” and the “bacteriostatic effect at 100 µg/ml” value [12] was “bacteriostatic effect”. For the same molecule, the “Concentration up to which effect is bacteriostatic” value [12] was ≤ 1000 µg/mL and the “bacteriostatic or bactericidal effect” value [12] was “bacteriostatic effect; also recorded: bacteriostatic activity”.
